Measured values: patent US10603345B2, “Pharmaceutical composition for treating respiratory disease” (Kunming Institute of Botany, The Chinese Academy of Sciences, priority 2015, dated 2020)

How the values were obtained:
Assay type in all cases: in vivo
[1] = system: IL-10 in BALF of asthma model mouse; assay: Effect on IL-10 in BALF of asthma model mouse; conditions: ELISA, ig 7 d, dose/kg: dexamethasone 2.0 mg, Test group 1 50, 2 25, picrinine 5.0, vallesamine 3.0, scholaricine 3.0, 19-epi-scholaricine 3.5 mg, x ± SD
Protocol: Animal source: 25˜30 g male ICR mouse, from laboratory animal department of Kunming Medical University, License No. SCXK (Dian) 2011-0004.
Method and route: ovalbumin (OVA) was used to induce mouse asthma model, and after intragastrical administration for 7 d at a dose of 20 mL/kg, the animal was sacrificed at the eighth day.
Test group 1: picrinine, vallesamine, scholaricine and 19-epischolaricine prepared in Example 1.7 were homogeneously mixed at different ratios by weight (50 mg/kg), Test group 2: the alkaloid composition prepared in Example 1.4 (25 mg/kg). […]
(§1) Sample preparation: all the samples were prepared by using 0.5% carboxymethylcellulose sodium (0.5% CMC-Na).
Group and dose: in Test group 1, the ratio of picrinine, vallesamine, scholaricine and 19-epischolaricine by weight was 18:13:14:3, and the other groups and doses thereof were as described in Example 11.
Test index: IL-10 in BALF was used as index, and was determined by enzyme linked immunosorbent assay.

[2] = system: KL-6 in serum of pulmonary fibrosis model mouse; assay: Effect on KL-6 in serum of pulmonary fibrosis model mouse; conditions: ELISA, bleomycin pulmonary fibrosis mouse, ig 28 d, dose/kg: prednisone acetate 5 mg, Test group 1 50, 2 25, 3 12.5, picrinine 5.0, vallesamine 3.0, scholaricine 3.5, 19-epi-scholaricine 1.0 mg, x ± SD
Protocol: (§2) Animal source: 30˜35 g male ICR mouse, from laboratory animal department of Kunming Medical University, License No. SCXK (Dian) 2011-0004.
(§3) Method and route: bleomycin was used to induce mouse pulmonary fibrosis, and after intragastrical administration for 28 d at a dose of 20 mL/kg, the animal was sacrificed at the 29th day.
(§4) Group and dose: Sham group, Model group, Positive control group, prednisone acetate (5 mg/kg) group, Test group 1: picrinine, vallesamine, scholaricine and 19-epischolaricine prepared in Example 1.7 were mixed at different ratios by weight (50 mg/kg), Test group 2: the alkaloid composition (25 mg/kg) prepared in Example 1.5, Test group 3: the alkaloid composition (12.5 mg/kg) prepared in Example 1.6, Picrinine group (5.0 mg/kg), Vallesamine group (3.0 mg/kg), Scholaricine group (3.5 mg/kg), and 19-epischolaricine group (1.0 mg/kg).
(§5) Positive control drug: prednisone acetate tablet, Approval number: H33021207, 5 mg/tablet, produced by Zhejiang Xianju Pharmaceutical Co., Ltd., Batch No. 140146.
as §1
Group and dose: in Test group 1, the ratio of picrinine, vallesamine, scholaricine and 19-epischolaricine by weight was 45:38:30:8, and the other groups and doses thereof were as described in Example 12.
Test index: KL-6 in serum was used as index, and was determined by enzyme linked immunosorbent assay.

[3] = system: SOD in serum and homogenate of pulmonary fibrosis model mouse; assay: Effect on SOD in serum and homogenate of pulmonary fibrosis model mouse; conditions: bleomycin pulmonary fibrosis mouse, ig 28 d, dose/kg: prednisone acetate 5 mg, Test group 1 50, 2 25, 3 12.5, picrinine 5.0, vallesamine 3.0, scholaricine 3.5, 19-epi-scholaricine 1.0 mg, x ± SD
Protocol: as §2, §3, §4, §5, §1
Group and dose: in Test group 1, the ratio of picrinine, vallesamine, scholaricine and 19-epischolaricine by weight was 10:7:7:2, and the other groups and doses thereof were as described in Example 12.
Test index: SOD in serum and homogenate was used as index, and was determined by xanthine oxidase method.

[4] = system: Col-1 in homogenate of pulmonary fibrosis model mouse; assay: Effect on Col-1 in homogenate of pulmonary fibrosis model mouse; conditions: ELISA, bleomycin pulmonary fibrosis mouse, ig 28 d, dose/kg: prednisone acetate 5 mg, Test group 1 50, 2 25, 3 12.5, picrinine 5.0, vallesamine 3.0, scholaricine 3.5, 19-epi-scholaricine 1.0 mg, x ± SD
Protocol: as §2, §3, §4, §5, §1
Group and dose: in Test group 1, the ratio of picrinine, vallesamine, scholaricine and 19-epischolaricine by weight was 20:17:17:4, and the other groups and doses thereof were as described in Example 12.
Test index: Col-1 in homogenate was used as index, and was determined by enzyme linked immunosorbent assay.

[5] = system: MDA in serum and homogenate of pulmonary fibrosis model mouse; assay: Effect on MDA in serum and homogenate of pulmonary fibrosis model mouse; conditions: bleomycin pulmonary fibrosis mouse, ig 28 d, dose/kg: prednisone acetate 5 mg, Test group 1 50, 2 25, 3 12.5, picrinine 5.0, vallesamine 3.0, scholaricine 3.5, 19-epi-scholaricine 1.0 mg, x ± SD
Protocol: as §2, §3, §4, §5, §1
Group and dose: in Test group 1, the ratio of picrinine, vallesamine, scholaricine and 19-epischolaricine by weight was 8:5:5:1, and the other groups and doses thereof were as described in Example 12.
Test index: MDA in serum and homogenate was used as index, and was determined by thiobabituric acid method.

Row | Structure (SMILES) | IL-10 [1] [pg/mL] | KL-6 [2] [U/mg prot] | SOD homogenate ([3]; homogenate) [U/mg prot] | SOD Serum ([3]; serum) [U/mg prot] | Col-1 [4] [μg/g prot] | MDA Homogenate ([5]; homogenate) [nmol/mg prot] | MDA Serum ([5]; serum) [nmol/mg prot]
1 | C/C=C1/CN2[C@@H]3C[C@@]45c6ccccc6N[C@]4(O3)[C@@H]2C[C@@H]1[C@H]5C(=O)OC [picrinine] | 13.00 ± 3.15 | 3.91 ± 0.60 | 53.2 ± 8.9 | 17.2 ± 5.1 |  |  | 
2 | C/C=C1/CN2CC[C@@H]1[C@@](CO)(C(=O)OC)c1[nH]c3ccccc3c1C2 [vallesamine] | 14.83 ± 3.49 |  |  |  | 6.3 ± 2.7 |  | 
3 | COC(=O)C1=C2Nc3c(O)cccc3[C@@]23CCN2C[C@@H]([C@H](C)O)[C@@H]1C[C@H]23 [19-epi-scholaricine, 19-epischolaricine] |  | 4.10 ± 0.97 |  |  | 6.5 ± 2.2 | 22.0 ± 7.4 | 0.66 ± 0.18
